Source: PubChem BioAssay AID256 (DTP/NCI, 2004)
Values joined by “and” are separate entries in the source; they are usually repeats but may differ in a detail not shown here. Equal entries are not always repeated. Toxic doses and inconclusive results are not listed. Rule for the calls: active = survival T/C of 150% or more; inactive = T/C below 125% in these data.

Test system: CD2F1 mice, L1210 leukemia ip, survival T/C
Assay: NCI In Vivo Anticancer Drug Screen. Data for tumor model L1210 Leukemia (intraperitoneal) in CD2F1 (CDF1) mice
Details: higher = longer survival
Summary of the method: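 Mice carrying a transplanted tumor received test compound or vehicle alone. The value is the measurement in the treated group divided by that in the vehicle-treated control group.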

[1] = endpoint: mean survival time, dose: 100.0 mg/kg/injection, schedule: Q01DX009 (ip), vehicle: saline with Tween-80
[2] = endpoint: mean survival time, dose: 200.0 mg/kg/injection, schedule: Q01DX009 (ip), vehicle: saline with Tween-80
[3] = endpoint: mean survival time, dose: 400.0 mg/kg/injection, schedule: Q01DX009 (ip), vehicle: saline with Tween-80
[4] = endpoint: mean survival time, dose: 100.0 mg/kg/injection, schedule: Q04DX002 (ip), vehicle: saline with Tween-80
[5] = endpoint: mean survival time, dose: 18.75 mg/kg/injection, schedule: Q01DX009 (ip), vehicle: Klucel (hydroxypropylcellulose) (HPC)
[6] = endpoint: mean survival time, dose: 37.5 mg/kg/injection, schedule: Q01DX009 (ip), vehicle: Klucel (hydroxypropylcellulose) (HPC)
[7] = endpoint: mean survival time, dose: 75.0 mg/kg/injection, schedule: Q01DX009 (ip), vehicle: Klucel (hydroxypropylcellulose) (HPC)
[8] = endpoint: mean survival time, dose: 100.0 mg/kg/injection, schedule: Q01DX001 (ip), vehicle: saline
[9] = endpoint: mean survival time, dose: 200.0 mg/kg/injection, schedule: Q01DX001 (ip), vehicle: saline
[10] = endpoint: mean survival time, dose: 400.0 mg/kg/injection, schedule: Q01DX001 (ip), vehicle: saline
[11] = endpoint: mean survival time, dose: 12.5 mg/kg/injection, schedule: Q01DX009 (ip), vehicle: saline with Tween-80
[12] = endpoint: mean survival time, dose: 25.0 mg/kg/injection, schedule: Q01DX009 (ip), vehicle: saline with Tween-80
[13] = endpoint: mean survival time, dose: 50.0 mg/kg/injection, schedule: Q01DX009 (ip), vehicle: saline with Tween-80
[14] = endpoint: mean survival time, dose: 100.0 mg/kg/injection, schedule: Q01DX001 (ip), vehicle: saline with Tween-80
[15] = endpoint: mean survival time, dose: 200.0 mg/kg/injection, schedule: Q01DX001 (ip), vehicle: saline with Tween-80

Measured: T/C

O=C(CC(=O)C(F)(F)F)c1cccs1.O=C(CC(=O)C(F)(F)F)c1cccs1.O=C(CC(=O)C(F)(F)F)c1cccs1.[Sm]
inactive: endpoint: median survival time, dose: 50.0 mg/kg/injection, schedule: Q04DX002 (ip), vehicle: saline with Tween-80 100 % of control | endpoint: median survival time, dose: 100.0 mg/kg/injection, schedule: Q04DX002 (ip), vehicle: saline with Tween-80 88 % of control | endpoint: median survival time, dose: 200.0 mg/kg/injection, schedule: Q04DX002 (ip), vehicle: saline with Tween-80 100 % of control

CNS(=O)(=O)c1ccc2c(c1)nc(SC)n2C
inactive: [1] 101 % of control | endpoint: mean survival time, dose: 100.0 mg/kg/injection, schedule: Q04DX003 (ip), vehicle: saline with Tween-80 102 % of control | [2] 101 % of control | endpoint: mean survival time, dose: 200.0 mg/kg/injection, schedule: Q04DX003 (ip), vehicle: saline with Tween-80 94 % of control | [3] 93 % of control | endpoint: mean survival time, dose: 400.0 mg/kg/injection, schedule: Q04DX003 (ip), vehicle: saline with Tween-80 95 % of control

O=C(/C=C(\Br)c1ccccc1)c1ccccc1
inactive: [4] 91 % of control

Cc1cc(=O)[nH][nH]c1=O
inactive: [1] 104 % of control | [2] 97 % of control | [3] 101 % of control

C[NH-].C[NH-].C[NH-].C[NH-].O=C(O)c1cc(C(=O)O)c(C(=O)O)cc1C(=O)O.[Pt+2].[Pt+2]
inactive: endpoint: mean survival time, dose: 3.12 mg/kg/injection, schedule: Q04DX003 (ip), vehicle: distilled water + Tween-80 100 % of control | endpoint: mean survival time, dose: 6.25 mg/kg/injection, schedule: Q04DX003 (ip), vehicle: distilled water + Tween-80 102 % of control | endpoint: mean survival time, dose: 12.5 mg/kg/injection, schedule: Q04DX003 (ip), vehicle: distilled water + Tween-80 103 % of control | endpoint: mean survival time, dose: 25.0 mg/kg/injection, schedule: Q04DX003 (ip), vehicle: distilled water + Tween-80 105 % of control | endpoint: mean survival time, dose: 50.0 mg/kg/injection, schedule: Q04DX003 (ip), vehicle: distilled water + Tween-80 102 % of control | endpoint: mean survival time, dose: 100.0 mg/kg/injection, schedule: Q04DX003 (ip), vehicle: distilled water + Tween-80 103 % of control | endpoint: mean survival time, dose: 200.0 mg/kg/injection, schedule: Q04DX003 (ip), vehicle: distilled water + Tween-80 107 % of control

CN(/N=N/c1nc[nH]c1C(N)=O)C(C)(C)C
inactive: [5] 96 % of control | [6] 110 % of control | [7] 109 % of control | endpoint: mean survival time, dose: 150.0 mg/kg/injection, schedule: Q01DX009 (ip), vehicle: Klucel (hydroxypropylcellulose) (HPC) 109 % of control | endpoint: mean survival time, dose: 300.0 mg/kg/injection, schedule: Q01DX009 (ip), vehicle: Klucel (hydroxypropylcellulose) (HPC) 103 % of control

CN(CC#N)N=Nc1ccc(C(N)=O)cc1
inactive: endpoint: mean survival time, dose: 4.68 mg/kg/injection, schedule: Q01DX009 (ip), vehicle: Klucel (hydroxypropylcellulose) (HPC) 96 % of control and 98 % of control | endpoint: mean survival time, dose: 9.37 mg/kg/injection, schedule: Q01DX009 (ip), vehicle: Klucel (hydroxypropylcellulose) (HPC) 102 % of control and 104 % of control | [5] 95 % of control and 98 % of control | [6] 102 % of control and 107 % of control | [7] 118 % of control

CCCC1([N+](=O)[O-])c2ccccc2-c2ccc([N+](=O)[O-])cc21 (centres undefined)
inactive: [8] 98 % of control | [9] 96 % of control | [10] 92 % of control

C=CCNC(=S)NCCCCCCCCCCCCCCCCCC
inactive: [11] 98 % of control | [12] 98 % of control | [13] 104 % of control

COc1ccc2ccccc2c1C1NC(=O)c2ccccc2N1 (centres undefined)
inactive: endpoint: mean survival time, dose: 12.5 mg/kg/injection, schedule: Q01DX009 (ip), vehicle: Klucel (hydroxypropylcellulose) (HPC) 95 % of control and 102 % of control | endpoint: mean survival time, dose: 25.0 mg/kg/injection, schedule: Q01DX009 (ip), vehicle: Klucel (hydroxypropylcellulose) (HPC) 101 % of control and 102 % of control | endpoint: mean survival time, dose: 50.0 mg/kg/injection, schedule: Q01DX009 (ip), vehicle: Klucel (hydroxypropylcellulose) (HPC) 105 % of control and 107 % of control | endpoint: mean survival time, dose: 100.0 mg/kg/injection, schedule: Q01DX009 (ip), vehicle: Klucel (hydroxypropylcellulose) (HPC) 101 % of control and 104 % of control | endpoint: mean survival time, dose: 200.0 mg/kg/injection, schedule: Q01DX009 (ip), vehicle: Klucel (hydroxypropylcellulose) (HPC) 104 % of control and 105 % of control | endpoint: mean survival time, dose: 400.0 mg/kg/injection, schedule: Q01DX009 (ip), vehicle: Klucel (hydroxypropylcellulose) (HPC) 119 % of control and 96 % of control

CCOS(=O)(=O)CCCCS(=O)(=O)OCC
inactive: endpoint: mean survival time, dose: 10.0 mg/kg/injection, schedule: Q01DX009 (ip), vehicle: Klucel (hydroxypropylcellulose) (HPC) 104 % of control | endpoint: mean survival time, dose: 20.0 mg/kg/injection, schedule: Q01DX009 (ip), vehicle: Klucel (hydroxypropylcellulose) (HPC) 98 % of control | endpoint: mean survival time, dose: 40.0 mg/kg/injection, schedule: Q01DX009 (ip), vehicle: Klucel (hydroxypropylcellulose) (HPC) 107 % of control

C=CCc1ccc(OC(=O)Nc2ccc(S(=O)(=O)N(CCC)CCC)cc2)c(OC)c1
inactive: [8] 94 % of control | [9] 94 % of control | [10] 94 % of control

C=CCCCCCCCCC(=O)NCCCC(OCC)OCC
inactive: [1] 100 % of control | [2] 100 % of control | [3] 98 % of control

CCOC(=O)CC1(C)C(=O)NC(=O)N1C(C)=O (centres undefined)
inactive: [14] 105 % of control | [1] 103 % of control | [15] 97 % of control | [2] 103 % of control | endpoint: mean survival time, dose: 400.0 mg/kg/injection, schedule: Q01DX001 (ip), vehicle: saline with Tween-80 94 % of control | [3] 116 % of control

CN1COc2c(n(C)c(=O)[nH]c2=O)C1
inactive: endpoint: median survival time, dose: 50.0 mg/kg/injection, schedule: Q01DX005 (ip), vehicle: saline 98 % of control | endpoint: median survival time, dose: 50.0 mg/kg/injection, schedule: Q01DX005 (ip), vehicle: suspension in saline 101 % of control | endpoint: median survival time, dose: 100.0 mg/kg/injection, schedule: Q01DX005 (ip), vehicle: saline 98 % of control | endpoint: median survival time, dose: 100.0 mg/kg/injection, schedule: Q01DX005 (ip), vehicle: suspension in saline 103 % of control | endpoint: median survival time, dose: 200.0 mg/kg/injection, schedule: Q01DX005 (ip), vehicle: saline 101 % of control | endpoint: median survival time, dose: 200.0 mg/kg/injection, schedule: Q01DX005 (ip), vehicle: suspension in saline 102 % of control | endpoint: median survival time, dose: 400.0 mg/kg/injection, schedule: Q01DX005 (ip), vehicle: saline 109 % of control | endpoint: median survival time, dose: 400.0 mg/kg/injection, schedule: Q01DX005 (ip), vehicle: suspension in saline 119 % of control | endpoint: median survival time, dose: 800.0 mg/kg/injection, schedule: Q01DX005 (ip), vehicle: saline 108 % of control | endpoint: median survival time, dose: 800.0 mg/kg/injection, schedule: Q01DX005 (ip), vehicle: suspension in saline 116 % of control

NC(=S)N/N=C1\CC2CC1C1C=CCC21 (centres undefined)
inactive: [4] 111 % of control | endpoint: mean survival time, dose: 200.0 mg/kg/injection, schedule: Q04DX002 (ip), vehicle: saline with Tween-80 98 % of control

Cn1c(/C=C/C(=O)O)cc2ccccc21
inactive: endpoint: mean survival time, dose: 75.0 mg/kg/injection, schedule: Q01DX001 (ip), vehicle: saline 108 % of control | endpoint: mean survival time, dose: 150.0 mg/kg/injection, schedule: Q01DX001 (ip), vehicle: saline 106 % of control | endpoint: mean survival time, dose: 300.0 mg/kg/injection, schedule: Q01DX001 (ip), vehicle: saline 106 % of control

O=C1C(c2ccccc2)=C(c2ccccc2)c2cc(Br)c(Br)cc21
inactive: endpoint: mean survival time, dose: 50.0 mg/kg/injection, schedule: Q01DX001 (ip), vehicle: saline with Tween-80 93 % of control | [14] 93 % of control | [15] 93 % of control

N#Cc1ccc(NC=O)cc1
inactive: endpoint: mean survival time, dose: 100.0 mg/kg/injection, schedule: Q04DX003 (ip), vehicle: Klucel (hydroxypropylcellulose) (HPC) 98 % of control | endpoint: mean survival time, dose: 200.0 mg/kg/injection, schedule: Q04DX003 (ip), vehicle: Klucel (hydroxypropylcellulose) (HPC) 98 % of control | endpoint: mean survival time, dose: 400.0 mg/kg/injection, schedule: Q04DX003 (ip), vehicle: Klucel (hydroxypropylcellulose) (HPC) 102 % of control

O=S(=O)(Cc1ccc(CS(=O)(=O)c2ccc(Cl)cc2)cc1)c1ccc(Cl)cc1
inactive: [11] 91 % of control | [12] 90 % of control | [13] 91 % of control

CC(C)C1OC(C(F)(F)F)(C(F)(F)Cl)CC1=O (centres undefined)
inactive: endpoint: mean survival time, dose: 100.0 mg/kg/injection, schedule: Q01DX001 (ip), vehicle: Klucel (hydroxypropylcellulose) (HPC) 86 % of control | endpoint: mean survival time, dose: 200.0 mg/kg/injection, schedule: Q01DX001 (ip), vehicle: Klucel (hydroxypropylcellulose) (HPC) 97 % of control | endpoint: mean survival time, dose: 400.0 mg/kg/injection, schedule: Q01DX001 (ip), vehicle: Klucel (hydroxypropylcellulose) (HPC) 98 % of control
